This note sets out measurements from patent US12371428B2 (Exelixis, Inc., priority 2019, dated 2025).

Where two headings read alike, the source gives them in different places.

Usually IC50 stands for the concentration needed to halve the response being measured.

Common to all, as to assay type: cell-based
Test [1] addresses AXL (phospho-AXL, Gas6-stimulated A-172 glioblastoma cells) (Homo sapiens (Human), UniProt P30530). The test can be described thus: AXL autophosphorylation ELISA in A-172 cells (Example E). The conditions noted are these: cellular activity, read-out: Axl IC50. The method, then: A-172 cells were incubated at 37° C., 5% CO2 for 24 h and then starved for 24 h in serum-free medium. Test compounds were serially diluted to produce an 8-point dose curve in fresh serum-free medium to a final concentration of 0.3% DMSO (vehicle) and added to the cells and incubated for 1 h. […] Lysates were collected and 100 μL/well added into the human phospho-AXL DuoSet IC ELISA (R&D Systems #DYC2228-2). […] Positive control wells (100% activity) contained Gas6-stimulated, DMSO-treated cell lysates. Negative control wells (0% activity) contained Gas6-stimulated, reference inhibitor-treated cell lysates. IC50 values were calculated by nonlinear regression analysis using a 4-parameter logistic curve fit in ActivityBase XE (IDBS).
(In an ELISA, binding on a coated surface is turned into a signal by an enzyme label.)

Test [2] has as its target Mer (phospho-Mer, MERTK-transfected 293A cells) (Homo sapiens (Human), UniProt Q12866). The test can be described thus: Mer autophosphorylation ELISA in transient transfected 293A cells (Example H). The conditions noted are these: cellular activity. A digest of the protocol: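 IC50 from 4-parameter logistic fit of phospho-Mer levels, quantified by ELISA against a phospho-Mer standard in lysates of MERTK-transfected 293A cells. Cells exposed 1 h to 8-point serial dilutions, serum-free, 0.3% DMSO; controls: DMSO (100%) and reference inhibitor (0%).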

Test [3] deals with Met (phospho-Met, HGF-stimulated PC-3 prostate cancer cells) (Homo sapiens (Human), UniProt P08581). The test can be described thus: Met autophosphorylation ELISA in PC-3 cells (Example F). The conditions noted are these: cellular activity, read-out: c-Met IC50. A digest of the protocol:
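PC-3 cells, serum-starved 3 h, were treated with compounds (8-point dose curve, 0.3% DMSO final) for 1 h, then stimulated with 100 ng/mL recombinant human HGF for 10 min. Lysate phospho-Met (panTyr) was quantified by sandwich ELISA; IC50 from 4-parameter logistic fit.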

The mark [4] stands for this setting: AXL autophosphorylation ELISA in A-172 cells.
Setting [5] is: Mer autophosphorylation ELISA in transient transfected 293A cells.
The mark [6] stands for this setting: Met autophosphorylation ELISA in PC-3 cells.

Chain of Met (phospho-Met, HGF-stimulated PC-3 prostate cancer cells) (P08581 25-1390): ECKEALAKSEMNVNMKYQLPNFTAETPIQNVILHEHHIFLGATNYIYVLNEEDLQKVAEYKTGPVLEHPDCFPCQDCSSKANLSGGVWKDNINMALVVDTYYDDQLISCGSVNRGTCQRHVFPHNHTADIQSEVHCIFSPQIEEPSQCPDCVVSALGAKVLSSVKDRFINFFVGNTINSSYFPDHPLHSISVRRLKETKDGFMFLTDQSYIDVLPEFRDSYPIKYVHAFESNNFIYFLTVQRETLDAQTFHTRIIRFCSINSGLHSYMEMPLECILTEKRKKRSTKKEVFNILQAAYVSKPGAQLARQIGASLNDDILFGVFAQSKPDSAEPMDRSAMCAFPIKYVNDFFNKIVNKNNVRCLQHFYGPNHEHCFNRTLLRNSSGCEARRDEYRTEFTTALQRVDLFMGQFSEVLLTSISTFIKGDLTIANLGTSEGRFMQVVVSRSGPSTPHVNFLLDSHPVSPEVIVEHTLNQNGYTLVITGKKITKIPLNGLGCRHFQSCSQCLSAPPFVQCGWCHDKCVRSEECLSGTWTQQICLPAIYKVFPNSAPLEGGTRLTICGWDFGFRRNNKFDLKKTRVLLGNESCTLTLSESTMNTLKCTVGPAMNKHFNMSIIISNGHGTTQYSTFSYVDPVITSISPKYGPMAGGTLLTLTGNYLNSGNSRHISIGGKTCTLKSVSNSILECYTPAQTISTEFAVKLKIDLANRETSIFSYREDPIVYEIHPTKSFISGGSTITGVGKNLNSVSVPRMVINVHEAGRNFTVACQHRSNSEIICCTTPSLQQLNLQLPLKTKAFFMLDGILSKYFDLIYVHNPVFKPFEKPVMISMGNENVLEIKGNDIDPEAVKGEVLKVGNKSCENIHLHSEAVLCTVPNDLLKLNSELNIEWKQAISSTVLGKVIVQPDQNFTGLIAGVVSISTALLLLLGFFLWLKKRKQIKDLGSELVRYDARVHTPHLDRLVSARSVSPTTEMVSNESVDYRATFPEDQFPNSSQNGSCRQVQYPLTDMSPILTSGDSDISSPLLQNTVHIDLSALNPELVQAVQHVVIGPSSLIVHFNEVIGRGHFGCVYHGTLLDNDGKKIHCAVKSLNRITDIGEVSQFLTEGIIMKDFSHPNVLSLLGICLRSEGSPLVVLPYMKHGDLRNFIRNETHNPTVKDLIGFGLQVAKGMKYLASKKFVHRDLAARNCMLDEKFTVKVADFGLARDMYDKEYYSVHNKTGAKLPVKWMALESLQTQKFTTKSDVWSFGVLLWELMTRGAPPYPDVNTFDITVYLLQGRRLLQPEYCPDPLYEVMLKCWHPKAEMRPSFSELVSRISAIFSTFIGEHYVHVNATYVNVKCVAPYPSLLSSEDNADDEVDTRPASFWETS
Chain of Mer (phospho-Mer, MERTK-transfected 293A cells) (Q12866 21-999): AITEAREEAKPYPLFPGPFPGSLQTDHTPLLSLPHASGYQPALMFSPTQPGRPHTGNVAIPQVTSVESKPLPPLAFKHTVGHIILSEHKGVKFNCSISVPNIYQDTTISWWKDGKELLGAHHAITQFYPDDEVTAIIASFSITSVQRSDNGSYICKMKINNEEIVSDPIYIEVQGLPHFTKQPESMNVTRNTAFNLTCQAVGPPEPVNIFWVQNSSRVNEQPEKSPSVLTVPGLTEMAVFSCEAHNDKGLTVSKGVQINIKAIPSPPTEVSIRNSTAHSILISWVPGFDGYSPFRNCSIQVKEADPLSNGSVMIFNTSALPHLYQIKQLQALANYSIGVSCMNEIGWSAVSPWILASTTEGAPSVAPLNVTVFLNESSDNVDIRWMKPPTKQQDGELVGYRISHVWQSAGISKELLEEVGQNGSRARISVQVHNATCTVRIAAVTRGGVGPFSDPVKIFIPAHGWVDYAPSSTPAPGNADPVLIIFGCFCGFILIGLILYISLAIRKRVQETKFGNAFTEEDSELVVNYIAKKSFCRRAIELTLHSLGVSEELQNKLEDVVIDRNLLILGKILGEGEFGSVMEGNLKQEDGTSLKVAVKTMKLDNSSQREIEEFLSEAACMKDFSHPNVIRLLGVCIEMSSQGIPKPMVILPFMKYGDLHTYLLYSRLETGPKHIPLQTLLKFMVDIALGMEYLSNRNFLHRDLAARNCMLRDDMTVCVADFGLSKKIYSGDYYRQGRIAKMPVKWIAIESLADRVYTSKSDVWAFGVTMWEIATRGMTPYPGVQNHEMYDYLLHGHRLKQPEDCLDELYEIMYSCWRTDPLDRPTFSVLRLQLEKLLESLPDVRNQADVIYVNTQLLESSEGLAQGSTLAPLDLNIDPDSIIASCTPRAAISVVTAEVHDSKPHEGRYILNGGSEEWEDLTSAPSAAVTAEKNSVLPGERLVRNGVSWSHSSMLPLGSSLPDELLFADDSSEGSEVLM
Chain of AXL (phospho-AXL, Gas6-stimulated A-172 glioblastoma cells) (P30530 26-894): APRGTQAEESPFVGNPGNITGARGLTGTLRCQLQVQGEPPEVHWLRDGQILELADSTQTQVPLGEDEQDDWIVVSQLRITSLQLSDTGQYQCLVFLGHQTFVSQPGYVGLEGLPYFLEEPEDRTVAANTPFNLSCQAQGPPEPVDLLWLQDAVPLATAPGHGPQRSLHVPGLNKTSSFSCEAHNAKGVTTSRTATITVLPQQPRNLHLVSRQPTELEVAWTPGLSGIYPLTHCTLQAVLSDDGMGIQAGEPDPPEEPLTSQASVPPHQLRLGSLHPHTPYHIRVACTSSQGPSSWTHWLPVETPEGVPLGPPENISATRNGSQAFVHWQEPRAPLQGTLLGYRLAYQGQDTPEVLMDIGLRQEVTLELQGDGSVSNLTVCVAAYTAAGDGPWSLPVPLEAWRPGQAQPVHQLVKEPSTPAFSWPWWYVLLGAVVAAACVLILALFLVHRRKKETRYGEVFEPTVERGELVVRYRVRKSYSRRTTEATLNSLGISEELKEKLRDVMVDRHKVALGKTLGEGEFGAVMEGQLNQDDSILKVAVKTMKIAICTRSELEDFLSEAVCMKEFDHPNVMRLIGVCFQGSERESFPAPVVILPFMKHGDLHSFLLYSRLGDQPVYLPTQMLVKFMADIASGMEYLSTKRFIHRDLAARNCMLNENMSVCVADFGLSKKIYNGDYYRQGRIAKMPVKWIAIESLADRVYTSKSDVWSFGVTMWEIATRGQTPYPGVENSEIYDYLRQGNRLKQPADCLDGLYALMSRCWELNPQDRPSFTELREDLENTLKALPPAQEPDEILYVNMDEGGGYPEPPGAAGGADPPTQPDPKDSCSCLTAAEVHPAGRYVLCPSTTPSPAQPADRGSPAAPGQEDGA

For `COCc1nc(C)cc(O)c1C(=O)Nc1ccc(Oc2ccnc3cc(OC)c(OC)nc23)c(F)c1` [Compound 492, N-[4-[(6,7-dimethoxy-1,5-naphthyridin-4-yl)oxy]-3-fluorophenyl]-4-hydroxy-2-(methoxymethyl)-6-methylpyridine-3-carboxamide], the IC50 is 100 to 300 nM in test [1] (setting [4]), less than 100 nM in test [2] (setting [5]) and less than 100 nM in test [3] (setting [6]).

Turning to `COc1ccc2nccc(Oc3ccc(NC(=O)c4c(C)ncc(-c5ccc(F)cc5C)c4O)cc3)c2n1` [Compound 493, 5-(4-fluoro-2-methylphenyl)-4-hydroxy-N-[4-[(6-methoxy-1,5-naphthyridin-4-yl)oxy]phenyl]-2-methylpyridine-3-carboxamide], the 50% inhibitory concentration (IC50) in test [1] (setting [4]), in test [2] (setting [5]) and in test [3] (setting [6]) was less than 100 nM throughout.

As to `Cc1cc(C)n(-c2ccc(F)cc2)c(=O)c1C(=O)Nc1ccc(Oc2ccnc3cc(C(C)CO)cnc23)c(F)c1` (stereo not drawn) [Compound 599, N-[3-Fluoro-4-[[7-(1-hydroxypropan-2-yl)-1,5-naphthyridin-4-yl]oxy]phenyl]-1-(4-fluorophenyl)-4,6-dimethyl-2-oxopyridine-3-carboxamide], the half-inhibitory concentration (IC50) in test [1] (setting [4]), in test [2] (setting [5]) and in test [3] (setting [6]) was less than 100 nM in each case.

`COc1cc2nccc(Oc3ccc(NC(=O)c4nnc(C)c(-c5ccc(F)cc5)c4SC)cc3F)c2nc1OC` [Compound 602, N-[4-[(6,7-Dimethoxy-1,5-naphthyridin-4-yl)oxy]-3-fluorophenyl]-5-(4-fluorophenyl)-6-methyl-4-methylsulfanylpyridazine-3-carboxamide]: the IC50 in test [1] (setting [4]) was 100 to 300 nM; in test [2] (setting [5]), less than 100 nM; in test [3] (setting [6]), 100 to 300 nM.

`COc1cc2nccc(Oc3ccc(NC(=O)c4cn(CCF)c(C)c(-c5ccc(F)cc5)c4=O)cc3F)c2nc1OC` [Compound 622, N-[4-[(6,7-Dimethoxy-1,5-naphthyridin-4-yl)oxy]-3-fluorophenyl]-1-(2-fluoroethyl)-5-(4-fluorophenyl)-6-methyl-4-oxopyridine-3-carboxamide]: the IC50 in test [1] (setting [4]), in test [2] (setting [5]) and in test [3] (setting [6]) was less than 100 nM in each case.

Consider `COc1cc2nccc(Oc3ccc(NC(=O)c4cn(CC(F)F)c(C)c(-c5ccc(F)cc5)c4=O)cc3F)c2nc1OC` [Compound 623, 1-(2,2-Difluoroethyl)-N-[4-[(6,7-dimethoxy-1,5-naphthyridin-4-yl)oxy]-3-fluorophenyl]-5-(4-fluorophenyl)-6-methyl-4-oxopyridine-3-carboxamide], for which the IC50 in test [1] (setting [4]), in test [2] (setting [5]) and in test [3] (setting [6]) was less than 100 nM each time.

`COc1cnc2c(Oc3ccc(NC(=O)c4cn(CCF)c(C)c(-c5ccc(F)cc5)c4=O)cc3F)ccnc2c1` [Compound 624, 1-(2-Fluoroethyl)-N-[3-fluoro-4-[(7-methoxy-1,5-naphthyridin-4-yl)oxy]phenyl]-5-(4-fluorophenyl)-6-methyl-4-oxopyridine-3-carboxamide]: the half-maximal inhibitory concentration (IC50) in test [1] (setting [4]), in test [2] (setting [5]) and in test [3] (setting [6]) was less than 100 nM throughout.

In the case of `COc1cnc2c(Oc3ccc(NC(=O)c4cn(CC(F)F)c(C)c(-c5ccc(F)cc5)c4=O)cc3F)ccnc2c1` [Compound 625, 1-(2,2-Difluoroethyl)-N-[3-fluoro-4-[(7-methoxy-1,5-naphthyridin-4-yl)oxy]phenyl]-5-(4-fluorophenyl)-6-methyl-4-oxopyridine-3-carboxamide], the IC50 in test [1] (setting [4]), in test [2] (setting [5]) and in test [3] (setting [6]) was less than 100 nM throughout.

As for `COc1cnc2c(Oc3ccc(NC(=O)c4cn(C(F)F)c(C)c(-c5ccc(F)cc5)c4=O)cc3F)ccnc2c1` [Compound 626, 1-(Difluoromethyl)-N-[3-fluoro-4-[(7-methoxy-1,5-naphthyridin-4-yl)oxy]phenyl]-5-(4-fluorophenyl)-6-methyl-4-oxopyridine-3-carboxamide], the IC50 in test [1] (setting [4]), in test [2] (setting [5]) and in test [3] (setting [6]) was less than 100 nM in each case.

Turning to `COc1cnc2c(Oc3ccc(NC(=O)c4cn(CCF)c(C)c(-c5ccc(F)cc5C)c4=O)cc3)ccnc2c1` [Compound 798, 1-(2-fluoroethyl)-5-(4-fluoro-2-methylphenyl)-N-[4-[(7-methoxy-1,5-naphthyridin-4-yl)oxy]phenyl]-6-methyl-4-oxopyridine-3-carboxamide], the IC50 in test [1] (setting [4]), in test [2] (setting [5]) and in test [3] (setting [6]) was less than 100 nM in each case.

With `COc1cnc2c(Oc3ccc(NC(=O)c4cn(CCF)c(C)c(-c5ccc(F)cc5C)c4=O)cc3F)ccnc2c1` [Compound 799, 1-(2-fluoroethyl)-N-[3-fluoro-4-[(7-methoxy-1,5-naphthyridin-4-yl)oxy]phenyl]-5-(4-fluoro-2-methylphenyl)-6-methyl-4-oxopyridine-3-carboxamide], the IC50 in test [1] (setting [4]), in test [2] (setting [5]) and in test [3] (setting [6]) was less than 100 nM in each case.

Regarding `COc1cc2nccc(Oc3ccc(NC(=O)c4cn(CCF)c(C)c(-c5ccc(F)cc5C)c4=O)cc3)c2nc1OC` [Compound 800, N-[4-[(6,7-dimethoxy-1,5-naphthyridin-4-yl)oxy]phenyl]-1-(2-fluoroethyl)-5-(4-fluoro-2-methylphenyl)-6-methyl-4-oxopyridine-3-carboxamide], the IC50 in test [1] (setting [4]), in test [2] (setting [5]) and in test [3] (setting [6]) was less than 100 nM in each case.

For the compound `COc1cc2nccc(Oc3ccc(NC(=O)c4cn(CCF)c(C)c(-c5ccc(F)cc5C)c4=O)cc3F)c2nc1OC` [Compound 801, N-[4-[(6,7-dimethoxy-1,5-naphthyridin-4-yl)oxy]-3-fluorophenyl]-1-(2-fluoroethyl)-5-(4-fluoro-2-methylphenyl)-6-methyl-4-oxopyridine-3-carboxamide], the IC50 in test [1] (setting [4]), in test [2] (setting [5]) and in test [3] (setting [6]) was less than 100 nM in each case.

Consider `COc1nc2c(Oc3ccc(NC(=O)c4cn(C)c(C)c(-c5ccc(F)cc5)c4=O)cc3F)ccnc2cc1N` [Compound 803, N-[4-[(7-amino-6-methoxy-1,5-naphthyridin-4-yl)oxy]-3-fluorophenyl]-5-(4-fluorophenyl)-1,6-dimethyl-4-oxopyridine-3-carboxamide], for which the IC50 in test [1] (A-172 cells), in test [2] (transfected 293A cells) and in test [3] (PC-3 cells) was less than 100 nM in each case.

Regarding `COc1nc2c(Oc3ccc(NC(=O)c4c(C)nc(C)c(-c5ccc(F)cc5C)c4O)cc3F)ccnc2cc1N` [Compound 804, N-[4-[(7-amino-6-methoxy-1,5-naphthyridin-4-yl)oxy]-3-fluorophenyl]-5-(4-fluoro-2-methylphenyl)-4-hydroxy-2,6-dimethylpyridine-3-carboxamide], the IC50 in test [1] (A-172 cells), in test [2] (transfected 293A cells) and in test [3] (PC-3 cells) was less than 100 nM each time.

Consider `COc1cc(F)ccc1-c1cn(CCF)c(C)c(C(=O)Nc2ccc(Oc3ccnc4cc(OC)c(OC)nc34)c(F)c2)c1=O` [Compound 805, N-[4-[(6,7-dimethoxy-1,5-naphthyridin-4-yl)oxy]-3-fluorophenyl]-1-(2-fluoroethyl)-5-(4-fluoro-2-methoxyphenyl)-2-methyl-4-oxopyridine-3-carboxamide], for which the IC50 in test [1] (A-172 cells), in test [2] (transfected 293A cells) and in test [3] (PC-3 cells) was less than 100 nM in each case.
